In general, IC50 refers to the concentration needed to halve the response being measured.

For the first experiment, the target named is P2X7 receptor (Homo sapiens (Human), UniProt Q99572). Briefly: P2X7 FLIPR assay (BzATP-stimulated calcium fluorescence, antagonist IC50). Type of experiment: cell-based.
Chain of P2X7 receptor (Q99572 whole entry): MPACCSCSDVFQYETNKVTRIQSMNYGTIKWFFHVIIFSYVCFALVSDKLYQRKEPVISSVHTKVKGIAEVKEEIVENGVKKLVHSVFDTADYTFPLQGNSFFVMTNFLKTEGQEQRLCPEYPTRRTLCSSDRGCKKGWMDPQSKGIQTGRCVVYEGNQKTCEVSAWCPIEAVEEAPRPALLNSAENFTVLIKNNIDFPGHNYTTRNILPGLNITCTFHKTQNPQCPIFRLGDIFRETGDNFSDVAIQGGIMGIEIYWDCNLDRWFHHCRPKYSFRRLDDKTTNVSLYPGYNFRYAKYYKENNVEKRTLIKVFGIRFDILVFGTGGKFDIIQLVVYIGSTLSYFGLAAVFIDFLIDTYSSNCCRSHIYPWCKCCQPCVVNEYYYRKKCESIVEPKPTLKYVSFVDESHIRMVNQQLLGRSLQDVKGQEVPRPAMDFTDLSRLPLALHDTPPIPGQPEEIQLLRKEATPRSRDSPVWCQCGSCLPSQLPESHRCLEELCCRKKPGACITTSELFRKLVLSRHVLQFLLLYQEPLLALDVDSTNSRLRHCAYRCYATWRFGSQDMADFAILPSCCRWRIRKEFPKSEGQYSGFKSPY
Details: not given
An outline of the steps:
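Cells expressing P2X7 receptor (human, rat or mouse), plated 24 hours earlier in low-serum medium, loaded with Fluo-4 NW dye (30 min 37° C, 30 min room temperature).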
For `CC(CNC(=O)c1ccccc1Cl)(CC1CC1)c1cnc(C(F)(F)F)nc1` (stereo not shown) [2-chloro-N-[3-cyclopropyl-2-methyl-2-[2-(trifluoromethyl)pyr] [2-chloro-N-[3-cyclopropyl-2-methyl-2-[2-(trifluoromethyl)pyrimidin-5-yl]propyl]benzamide], the IC50 is 21 nM. The same measure, in the same setting: to `CC(CNC(=O)c1cccc(F)c1Cl)(CC1CC1)c1cnc(C(F)(F)F)nc1` (single isomer, unassigned; (+)) [(+)2-chloro-N-[3-cyclopropyl-2-methyl-2-[2-(trifluoromethyl)] [(+)2-chloro-N-[3-cyclopropyl-2-methyl-2-[2-(trifluoromethyl)pyrimidin-5-yl]propyl]-3-fluoro-benzamide] belongs 360 nM; to `COc1ccc(C2(CNC(=O)c3cccc(C)c3C)CCCC2)cc1` [N-[1-(4-Methoxy-phenyl)-cyclopentylmethyl]-2,3-dimethyl-benzamide], 600 nM; to `O=C(NCC1(c2cnc(C(F)(F)F)nc2)CCC(F)(F)CC1)c1cccc(Cl)c1Cl` [2,3-dichloro-N-[[4,4-difluoro-1-[2-(trifluoromethyl)pyrimidin-5-yl]cyclohexyl]methyl]benzamide], 0.95 nM. The same measure, in the same setting: to `Cc1ncc(C2(CNC(=O)c3ccccc3Cl)CCC(F)(F)CC2)cn1` [2-chloro-N-[[4,4-difluoro-1-(2-methylpyrimidin-5-yl)cyclohexyl]methyl]benzamide] belongs 120 nM. Take `O=C(NCC1(c2ccc(C(F)(F)F)nc2)CCC(F)(F)CC1)c1ccccc1Cl` [2-chloro-N-((4,4-difluoro-1-(6-(trifluoromethyl)pyridin-3-yl)cyclohexyl)methyl)benzamide]: the IC50 came to 2 nM.

With `Cc1ncc(C2(CNC(=O)c3cccc(Cl)c3Cl)CCC(F)(F)CC2)cn1` [2,3-dichloro-N-[[4,4-difluoro-1-(2-methylpyrimidin-5-yl)cyclohexyl]methyl]benzamide], the IC50 was determined as 8.6 nM. Consider `O=C(NCC(CC1CC1)c1ccc(C(F)(F)F)nc1)c1cccc(Cl)c1Cl` (stereo not shown) [2,3-dichloro-N-[3-cyclopropyl-2-[6-(trifluoromethyl)-3-pyrid] [2,3-dichloro-N-[3-cyclopropyl-2-[6-(trifluoromethyl)-3-pyridyl]propyl]benzamide], for which the IC50 amounted to 0.55 nM. On the same count and under the same terms, to `Cc1cccc(C(=O)NCC2(c3ccc(F)nc3)CCC(F)(F)CC2)c1F` [N-((4,4-difluoro-1-(6-fluoropyridin-3-yl)cyclohexyl)methyl)-2-fluoro-3-methylbenzamide] belongs 78 nM; to `N#Cc1ccccc1C(=O)NCC1(c2ccc(C(F)(F)F)nc2)CCC(F)(F)CC1` [2-cyano-N-((4,4-difluoro-1-(6-(trifluoromethyl)pyridin-3-yl)cyclohexyl)methyl)benzamide], 150 nM.

In the case of `O=C(NCC(CC1CC1)c1cnc(C(F)F)nc1)c1cccc(Cl)c1Cl` (single isomer, unassigned; (-)) [(−)2,3-dichloro-N-[3-cyclopropyl-2-[2-(difluoromethyl)pyrimi] [(−)2,3-dichloro-N-[3-cyclopropyl-2-[2-(difluoromethyl)pyrimidin-5-yl]propyl]benzamide], the IC50 turned out to be 1.9 nM.

For the compound `O=C(NCC(CC1CC1)c1cnc(C(F)(F)F)nc1)c1cccc(F)c1Cl` (single isomer, unassigned; (+)) [(+)2-chloro-N-[3-cyclopropyl-2-[2-(trifluoromethyl)pyrimidin] [(+)2-chloro-N-[3-cyclopropyl-2-[2-(trifluoromethyl)pyrimidin-5-yl]propyl]-3-fluoro-benzamide], the IC50 is 50 nM.

With `O=C(NCC(c1cnc(C(F)(F)F)nc1)C1CCOCC1)c1cccc(Cl)c1Cl` (single isomer, unassigned; (-)) [(−)2,3-dichloro-N-[2-tetrahydropyran-4-yl-2-[2-(trifluoromethyl)pyrimidin-5-yl]ethyl]benzamide], the IC50 was 11 nM. Still for that read-out and setting: to `O=C(NCC(c1cnc(C(F)(F)F)nc1)C1CCOCC1)c1c(F)cccc1Cl` (single isomer, unassigned; (-)) [(−)2-chloro-6-fluoro-N-[2-tetrahydropyran-4-yl-2-[2-(trifluo] [(−)2-chloro-6-fluoro-N-[2-tetrahydropyran-4-yl-2-[2-(trifluoromethyl)pyrimidin-5-yl]ethyl]benzamide] belongs 68 nM; to `O=C(NCC(c1cnc(C(F)(F)F)nc1)C1CCOCC1)c1cccc(F)c1Cl` (single isomer, unassigned; (-)) [(−)2-chloro-3-fluoro-N-[2-tetrahydropyran-4-yl-2-[2-(trifluo] [(−)2-chloro-3-fluoro-N-[2-tetrahydropyran-4-yl-2-[2-(trifluoromethyl)pyrimidin-5-yl]ethyl]benzamide], 64 nM; to `O=C(NCC1(c2ccc(F)nc2)CCC(F)(F)CC1)c1c(F)cccc1Cl` [2-chloro-N-[[4,4-difluoro-1-(6-fluoro-3-pyridyl)cyclohexyl]methyl]-6-fluoro-benzamide], 14 nM.

For the compound `O=C(NCC(CC1(C(F)(F)F)CC1)c1ccc(C(F)(F)F)nc1)c1cccc(F)c1Cl` (single isomer, unassigned; (+)) [(+)2-chloro-3-fluoro-N-[3-[1-(trifluoromethyl)cyclopropyl]-2] [(+)2-chloro-3-fluoro-N-[3-[1-(trifluoromethyl)cyclopropyl]-2-[6-(trifluoromethyl)-3-pyridyl]propyl]benzamide], the IC50 came out at 7.2 nM. On the same count and under the same terms, to `O=C(NCC1(c2ccc(C(F)(F)F)nc2)CCC(F)(F)CC1)c1cccc(Cl)c1F` [3-chloro-N-((4,4-difluoro-1-(6-(trifluoromethyl)pyridin-3-yl)cyclohexyl)methyl)-2-fluorobenzamide] belongs 3.2 nM. The same measure, in the same setting: to `Cc1ncc(C(CNC(=O)c2ccccc2Cl)C2CCOCC2)cn1` (single isomer, unassigned; (-)) [(−)2-chloro-N-[2-(2-methylpyrimidin-5-yl)-2-tetrahydropyran-] [(−)2-chloro-N-[2-(2-methylpyrimidin-5-yl)-2-tetrahydropyran-4-yl-ethyl]benzamide] belongs 570 nM; to `O=C(NCC(c1cnc(C(F)(F)F)nc1)C1CCOCC1)c1ccccc1Cl` (single isomer, unassigned; (+)) [(+)2-chloro-N-[2-tetrahydropyran-4-yl-2-[2-(trifluoromethyl)] [(+)2-chloro-N-[2-tetrahydropyran-4-yl-2-[2-(trifluoromethyl)pyrimidin-5-yl]ethyl]benzamide], 51 nM; to `O=C(NCC(c1cnc(C(F)(F)F)nc1)C1CCC(F)(F)CC1)c1ccccc1Cl` (single isomer, unassigned; (+)) [(+)2-chloro-N-[2-(4,4-difluorocyclohexyl)-2-[2-(trifluoromet] [(+)2-chloro-N-[2-(4,4-difluorocyclohexyl)-2-[2-(trifluoromethyl)pyrimidin-5-yl]ethyl]benzamide], 32 nM.

As for `O=C(NCC1(c2ccc(Cl)cc2)CCOCC1)c1cccc(C(F)(F)F)c1F` [N-[4-(4-Chloro-phenyl)-tetrahydro-pyran-4-ylmethyl]-2-fluoro-3-trifluoromethyl-benzamide], the concentration for half-maximal inhibition (IC50) was determined as 4300 nM. The same measure, in the same setting: to `Cc1ccc(Cl)c(C(=O)NCC2(c3ccc(C)nc3)CCOCC2)c1` [2-Chloro-5-methyl-N-[4-(6-methyl-pyridin-3-yl)-tetrahydro-pyran-4-ylmethyl]-benzamide] belongs 3400 nM; to `CC(CNC(=O)c1cccc(F)c1Cl)(CC1CC1)c1cnc(C(F)(F)F)nc1` (stereo not shown) [2-chloro-N-[3-cyclopropyl-2-methyl-2-[2-(trifluoromethyl)pyr] [2-chloro-N-[3-cyclopropyl-2-methyl-2-[2-(trifluoromethyl)pyrimidin-5-yl]propyl]-3-fluoro-benzamide], 16 nM. For the compound `O=C(NCC(c1ccc(Cl)cc1)C1CCOCC1)c1ccccc1Cl` (stereo not shown) [2-chloro-N-[2-(4-chlorophenyl)-2-tetrahydropyran-4-yl-ethyl]benzamide], the IC50 turned out to be 14 nM.

Regarding `O=C(NCC(CC1(C(F)(F)F)CC1)c1ccc(C(F)(F)F)nc1)c1ccccc1F` (stereo not shown) [2-fluoro-N-[3-[1-(trifluoromethyl)cyclopropyl]-2-[6-(trifluoromethyl)-3-pyridyl]propyl]benzamide], the IC50 stood at 430 nM. The same measure, in the same setting: to `O=C(NCC(CC1CC1)c1cnc(C(F)(F)F)nc1)c1cccc(Cl)c1Cl` (single isomer, unassigned; (-)) [(−)2,3-dichloro-N-[3-cyclopropyl-2-[2-(trifluoromethyl)pyrim] [(−)2,3-dichloro-N-[3-cyclopropyl-2-[2-(trifluoromethyl)pyrimidin-5-yl]propyl]benzamide] belongs 0.86 nM; to `Cc1ncc(C(CNC(=O)c2ccccc2Cl)CC2(C(F)(F)F)CC2)cn1` (single isomer, unassigned; (-)) [(−)2-chloro-N-[2-(2-methylpyrimidin-5-yl)-3-[1-(trifluoromet] [(−)2-chloro-N-[2-(2-methylpyrimidin-5-yl)-3-[1-(trifluoromethyl)cyclopropyl]propyl]benzamide], 650 nM; to `O=C(NCC(c1cnc(C(F)(F)F)nc1)C1CCC(F)(F)CC1)c1cccc(Cl)c1Cl` (single isomer, unassigned; (-)) [(−)2,3-dichloro-N-[2-(4,4-difluorocyclohexyl)-2-[2-(trifluor] [(−)2,3-dichloro-N-[2-(4,4-difluorocyclohexyl)-2-[2-(trifluoromethyl)pyrimidin-5-yl]ethyl]benzamide], 4.3 nM. With `Cc1ncc(C2(C(C)NC(=O)c3c(F)cccc3Cl)CCC(F)(F)CC2)cn1` (stereo not shown) [2-chloro-N-[1-[4,4-difluoro-1-(2-methylpyrimidin-5-yl)cyclohexyl]ethyl]-6-fluoro-benzamide], the IC50 worked out at 1400 nM.

The same experiment, now with this note: listed as (−)N-[3-cyclopropyl-2-[6-(trifluoromethyl)-3-pyridyl]propyl]-2-methoxy-benzamide.
For the compound `COc1ccccc1C(=O)NCC(CC1CC1)c1ccc(C(F)(F)F)nc1` (single isomer, unassigned) [Example 4o, (−)—N-(3-cyclopropyl-2-(6-(trifluoromethyl)pyridin-3-yl)propyl)-2-methoxybenzamide], the IC50 amounted to 53 nM.

The record behind these values is patent publication US9102591B2, “Benzamides” (H. Lundbeck A/S, priority 2012, dated 2015).
